Experiments:
Assay in all cases: MTT inhibition test against cell growth
NCI-H460 = assay type: cell-based; conditions: human large cell lung cancer cell NCI-H460, 48 hours
Experimental: (§1) The test selected human ovarian cancer cell SK-OV-3, liver cancer cell Hep-G2, gastric cancer cell MGC-803, bladder cancer cell T-24, cervical cancer cell HeLa-229, human large cell lung cancer cell NCI-H460 and human normal liver cell HL-7702, and all the used cell lines were placed in an RPMI-1640 or high-sugar DMEM culture solution containing 1% penicillin-streptomycin and 10% newborn fetal calf serum and cultured in an incubator at 37 °C and 5% CO2. The growths of the cells were observed discontinuously by an inverted microscope, and the culture solution was replaced periodically or digestion subcultured with 0.25% trypsin according to actual situations. […] The compounds each were formulated into 20 µmol/L of a solution, DMSO is used as a cosolvent with a final concentration of ≤1%; at the concentration, the inhibition degrees of the compounds against the growth of tumor cells were tested. […] After the individual tumor cells were attached to the wall, the working solutions of the tested compounds were added, and each compound is provided with quintuple holes in parallel whilst a corresponding control group (with a culture solution only containing tumor cells and the same equivalent of DMSO but without the tested compounds) is provided. […] The following equitation was utilized: […]

HL-7702 = assay type: cell-based
Experimental: as §1

T-24 = assay type: cell-based, human; conditions: bladder cancer cell T-24, 48 hours
Experimental: as §1

HeLa-229 = assay type: cell-based, human; conditions: cervical cancer cell HeLa-229, 48 hours
Experimental: as §1

MGC-803 = assay type: cell-based, human; conditions: gastric cancer cell MGC-803, 48 hours
Experimental: as §1

HepG-2 = assay type: cell-based, human
Experimental: as §1

[1] = L02, human normal liver cell HL-7702, 48 hours
[2] = Homo sapiens, HepG2, liver cancer cell HepG-2, 48 hours

SMILES | IC50 (NCI-H460) [µM] | IC50 (HL-7702; [1]) [µM] | IC50 (T-24; Homo sapiens) [µM] | IC50 (HeLa-229; Homo sapiens) [µM] | IC50 (MGC-803; Homo sapiens) [µM] | IC50 (HepG-2; [2]) [µM] | IC50 (HL-7702; human normal liver cell HL-7702, 48 hours) [µM] | IC50 (T-24) [µM] | IC50 (HeLa-229) [µM] | IC50 (MGC-803) [µM] | IC50 (HepG-2; liver cancer cell HepG-2, 48 hours) [µM]
O=S(=O)(O)c1ccc(N=Cc2c3ccccc3c(C=NNC3=NCCN3)c3ccccc23)cc1 [9-benzenesulfonic acid-10-imidazolylanthrahydrazone] | 14.5 ± 1.42 | 11.3 ± 0.71 | 10.7 ± 0.56 | 10.5 ± 1.52 | 9.48 ± 0.68 | 12.7 ± 1.56 |  |  |  |  | 
O=Cc1c2ccccc2c(C=NNC2=NCCN2)c2ccccc12 [9-formyl-10-imidazolylanthrahydrazone] | 16.1 ± 1.4 | 16.4 ± 2.78 | 13.9 ± 1.46 | > 20 | 18.8 ± 0.5 | 15.1 ± 1.69 |  |  |  |  | 
N.N.[Cl][Pt][Cl] [cisplatin] | 18.3 ± 1.02 |  |  |  |  |  | 12.7 ± 1.27 | 14.8 ± 2.74 | 13.2 ± 2.74 | 17.8 ± 2.5 | 18.6 ± 0.78

— EP3816157A1 (Guangxi Normal University, priority 2019, dated 2021)
